Test results reported in patent US20140127136A1, “LIPOSOMES USEFUL FOR DRUG DELIVERY TO THE BRAIN” (Merrimack Pharmaceuticals, Inc., priority 2004, published 2014).
“And” between values parts separate entries of the source, which are not always exact repeats. Equal entries are not always repeated. Structures can show the parent of a compound that is named as a salt. Where two headings read alike, the source gives them in different places.

How the values were obtained:
[1] = system: human breast carcinoma BT-474 xenografts; assay: Antitumor efficacy of CPT-11 liposomes (TEA-Pn) against breast cancer xenografts in nude mice; type: in vivo, NCR nu/nu mice; details: 50 mg CPT-11/kg i.v. on days 14, 18, 21, 25
[2] = system: subcutaneous xenografts of human colon carcinoma (HT-29); assay: Antitumor activity of free and liposomal CPT-11 against HT-29 xenografts; type: in vivo, NCR nu/nu athymic nude mice; details: 50 mg/kg per injection
[3] = MTD seeking study of CPT-11 formulations, single i.v. injection; type: in vivo, Swiss Webster mice
[4] = Toxicity of free and liposomal irinotecan following CED delivery into the brain; type: in vivo, rats; details: for brain tissue toxicity 60 days after CED: single 20 μl CED infusion
Method: Ls-CPT-11 was prepared and the CED procedure used were described in Example 68. To evaluate toxicity, healthy rats received a single infusion of free, i.e., dissolved, or Ls-CPT-11 via CED. […] Rats were euthanized 60 days after CED treatments, and their brains were harvested, sectioned and stained for standard pathology xamination.
No systemic toxicities, including weight loss or diarrhea, were observed following CED of any of the treatments. Furthermore, no gross neurologic or behavioral changes were noted post-treatment. Indeed, no dose-limiting toxicities for nanoliposomal CPT-11 were identified up to 1.6 mg/rat in a single 0.02 mL infusion, which represented the highest dose achieved without further concentrationg the liposomal sample.

[5] = mouse, 0.1 mg/ml
in vivo = details: Sprague-Dawley, rat, brain, other: CED infusion into the brain, 0.06 mg
[6] = Pharmacokinetics of irinotecan formulations administered by CED into normal brain tissue; details: 3 mg/ml
orthotopic U87 tumors = details: 60 μg (3 mg/ml), single CED 5 d after implantation
[7] = inj. dose 60 mg/kg, single i.v., individual mice, hydrochloride, 60 mg/kg
[8] = inj. dose 70 mg/kg, single i.v., individual mice, hydrochloride, 70 mg/kg
[9] = inj. dose 80 mg/kg, single i.v., individual mice, hydrochloride, 80 mg/kg

CCc1c2c(nc3ccc(OC(=O)N4CCC(N5CCCCC5)CC4)cc13)-c1cc3c(c(=O)n1C2)COC(=O)[C@]3(O)CC [free CPT-11, Irinotecan hydrochloride]
average tumor size at day 46 [1]: about 1,000 mm^3 | effect on tumor growth [1]: reduced the rate of tumor growth | animals tumor-free at the end of study without signs of regrowth [2]: no animals without tumor regrowth | effect on the tumor growth [2]: only minor effect on the tumor growth | Average tumor doubling time ([2]; 4 i.v. injections at intervals of 4 days): 4.8 days | MTD at 7 days ([3]; Swiss Webster, mouse, in vivo, iv, acute, single i.v. injection, mice): 80 mg/kg | Animal body weight at day 1 post injection [3, 7]: 20.4 g and 19.1 g and 20.0 g and 18.7 g | Animal body weight at day 2 post injection [3, 7]: 20.9 g and 19.4 g | Animal body weight at day 4 post injection [3, 7]: 22.1 g and 20.2 g | Animal body weight at day 6 post injection [3, 7]: 22.2 g and 20.4 g | Animal body weight at day 11 post injection [3, 7]: 22.5 g and 21.1 g | Animal body weight at day 1 post injection [3, 8]: 20.0 g and 21.8 g | Animal body weight at day 2 post injection [3, 8]: 20.6 g and 22.4 g | Animal body weight at day 1 post injection [3, 9]: 19.9 g and 20.8 g | Animal body weight at day 2 post injection [3, 9]: 20.1 g and 21.1 g | Animal body weight at day 3 post injection [3, 9]: 19.3 g and 20.6 g (2×) and 21.4 g and 21.9 g | outcome after injection ([3]; inj. dose 90 mg/kg, single i.v., individual mice): died 1-2 min after injection | outcome after injection ([3]; inj. dose 100 mg/kg, single i.v., individual mice): died 1-2 min after injection | brain tissue toxicity 60 days after CED ([4]; 60 μg): no apparent tissue toxicity | brain tissue toxicity 60 days after CED ([4]; 0.4 mg/rat): extensive tissue necrosis within the CNS | highest tolerable dose ([4]; CED into rat brain): 60 μg/infusion | weight loss during treatment, % of pre-treatment value (50 mg/kg per injection (free: permanent; liposomal: transient)): about 6% | condition after drug injection (50 mg/kg, for about one hour after injection): temporary morbidity | CPT-11, % carboxylate ([5]; 2 h): 35.2 ± 1.9% | CPT-11, % lactone ([5]; 2 h): 1.9 ± 0.4% | SN-38, % carboxylate ([5]; 2 h): 58.4 ± 2.1% | SN-38, % lactone ([5]; 2 h): 4.4 ± 0.1% | CPT-11, % carboxylate ([5]; 12 h): 11.5 ± 0.9% | CPT-11, % lactone ([5]; 12 h): <0.1% | SN-38, % carboxylate ([5]; 12 h): 78.6 ± 1.3% | SN-38, % lactone ([5]; 12 h): 9.9 ± 0.8% | CPT-11, % carboxylate ([5]; 24 h): <0.1% | CPT-11, % lactone ([5]; 24 h): <0.1% | SN-38, % carboxylate ([5]; 24 h): 77.5 ± 9.8% | MRT (in vivo): 9.6 h | AUC∞ [6]: 16.4 µg·days/g | Median survival (orthotopic U87 tumors): 28.5 days
